In ChEMBL document CHEMBL3352742, “Synthesis, molecular docking and biological evaluation of coumarin derivatives containing piperazine skeleton as potential antibacterial agents” (Bioorg Med Chem, 2014):
Values after ≈ are worked out from the molar mass of the structure shown.

What was measured:
[1] = tested on: Pseudomonas aeruginosa; assay: Antibacterial against Pseudomonas aeruginosa ATCC 27853 after 24 hrs by two-fold serial dilution method; assay type: functional; settings: ATCC 27853, 24 h
[2] = tested on: Escherichia coli; assay: Antibacterial against Escherichia coli ATCC 25922 after 24 hrs by two-fold serial dilution method; assay type: functional; settings: ATCC 25922, 24 h
[3] = tested on: Staphylococcus aureus; assay: Antibacterial against Staphylococcus aureus ATCC 25923 after 24 hrs by two-fold serial dilution method; assay type: functional; settings: ATCC 25923, 24 h
[4] = Inhibition of Staphylococcus aureus FabI assessed as oxidation of NADH to NAD+ by spectrophotometrically
[5] = tested on: Bacillus subtilis; assay: Antibacterial against Bacillus subtilis ATCC 530 after 24 hrs by two-fold serial dilution method; assay type: functional; settings: ATCC 530, 24 h
[6] = Cytotoxicity against human macrophages assessed as cell viability after 24 hrs by MTT assay; assay type: functional, cell-based; settings: Macrophage
[7] = Toxicity in human erythrocyte assessed as hemolysis by measuring hemoglobin release after 3 hrs; assay type: cell-based

| Structure (SMILES) | MIC [1] [µg/mL] | MIC [2] [µg/mL] | MIC [3] [µg/mL] | IC50 [4] [µM] | MIC [5] [µg/mL] | IC50 [6] [µM] | LC30 [7] [µg/mL] |
| --- | --- | --- | --- | --- | --- | --- | --- |
| COc1cccc(N2CCN(CC(O)COc3cc(=O)oc4ccccc34)CC2)c1 (stereo not drawn) | 17.1 (≈ 41.6 µM) | > 50 | 1.83 (≈ 4.46 µM) | 2.73 | 0.612 (≈ 1.49 µM) | 178 | > 10 |
| O=c1cc(OCC(O)CN2CCN(c3ccccc3)CC2)c2ccccc2o1 (stereo not drawn) | > 50 | > 50 | > 50 | 47.8 | 37.9 (≈ 99.7 µM) |  |  |
| O=c1cc(OCC(O)CN2CCN(Cc3ccccc3)CC2)c2ccccc2o1 (stereo not drawn) | > 50 | > 50 | 23 (≈ 58.4 µM) | 41.3 | > 50 |  |  |
| Cc1ccc(N2CCN(CC(O)COc3cc(=O)oc4ccccc34)CC2)c(C)c1 (stereo not drawn) | > 50 | > 50 | 1.44 (≈ 3.53 µM) | 6.23 | 2.86 (≈ 6.99 µM) | 127 | > 10 |
| O=c1cc(OCC(O)CN2CCN(c3ccc([N+](=O)[O-])cc3)CC2)c2ccccc2o1 (stereo not drawn) | 33 (≈ 77.6 µM) | > 50 | 2.4 (≈ 5.63 µM) | 3.82 | 3.65 (≈ 8.58 µM) | 153 | > 10 |
| COc1ccccc1N1CCN(CC(O)COc2cc(=O)oc3ccccc23)CC1 (stereo not drawn) | 49.8 (≈ 121 µM) | > 50 | 2.52 (≈ 6.15 µM) | 5.54 | 3.88 (≈ 9.46 µM) | 256 | > 10 |
| COc1ccc(N2CCN(CC(O)COc3cc(=O)oc4ccccc34)CC2)cc1 (stereo not drawn) | > 50 | > 50 | 0.355 (≈ 0.865 µM) | 0.57 | 0.236 (≈ 0.575 µM) | 198 | > 10 |
| O=c1cc(OCC(O)CN2CCN(c3ccc(Cl)c(Cl)c3)CC2)c2ccccc2o1 (stereo not drawn) | > 50 | > 50 | > 50 | 22.3 | 0.339 (≈ 0.754 µM) |  |  |
| O=c1cc(OCC(O)CN2CCN(c3ccccc3Cl)CC2)c2ccccc2o1 (stereo not drawn) | > 50 | > 50 | 11.6 (≈ 28.1 µM) | 17.7 | 13.9 (≈ 33.6 µM) |  |  |
| O=c1cc(OCC(O)CN2CCN(c3cccc(Cl)c3)CC2)c2ccccc2o1 (stereo not drawn) | > 50 | 40.6 (≈ 97.8 µM) | > 50 | 31.4 | 26 (≈ 62.6 µM) |  |  |
| O=c1cc(OCC(O)CN2CCN(c3ccccc3F)CC2)c2ccccc2o1 (stereo not drawn) | > 50 | > 50 | > 50 | 71.1 | > 50 |  |  |
| O=c1cc(OCC(O)CN2CCN(c3ccc(F)cc3)CC2)c2ccccc2o1 (stereo not drawn) | > 50 | 40.4 (≈ 101 µM) | > 50 | 62.9 | > 50 |  |  |
| O=c1cc(OCC(O)CN2CCN(c3cccc(C(F)(F)F)c3)CC2)c2ccccc2o1 (stereo not drawn) | > 50 | > 50 | 0.957 (≈ 2.13 µM) | 0.97 | 1.08 (≈ 2.4 µM) | 172 | > 10 |
| O=C(COc1cc(=O)oc2ccccc12)N1CCN(c2ccc([N+](=O)[O-])cc2)CC1 | > 50 | > 50 | > 50 | 11.4 | 1.94 (≈ 4.73 µM) |  |  |
| CC1(C)S[C@@H]2[C@H](NC(=O)Cc3ccccc3)C(=O)N2[C@H]1C(=O)O [PENICILLIN G] | 22 (≈ 65.7 µM) | 22.4 (≈ 66.9 µM) | 1.69 (≈ 5.04 µM) |  | 0.752 (≈ 2.25 µM) | 186 | > 10 |

Second part, led by results:

| MIC [1] [µg/mL] | MIC [2] [µg/mL] | MIC [3] [µg/mL] | IC50 [4] [µM] | MIC [5] [µg/mL] | Structure (SMILES) | IC50 [6] [µM] | LC30 [7] [µg/mL] |
| --- | --- | --- | --- | --- | --- | --- | --- |
| > 50 | 33.6 (≈ 92.3 µM) | 41.5 (≈ 114 µM) | 45.5 | > 50 | O=C(COc1cc(=O)oc2ccccc12)N1CCN(c2ccccc2)CC1 |  |  |
| 48.1 (≈ 111 µM) | > 50 | > 50 | 19.8 | 1.86 (≈ 4.29 µM) | O=C(COc1cc(=O)oc2ccccc12)N1CCN(c2ccc(Cl)c(Cl)c2)CC1 |  |  |
| > 50 | > 50 | > 50 | 43.2 | 31.3 (≈ 81.9 µM) | O=C(COc1cc(=O)oc2ccccc12)N1CCN(c2ccccc2F)CC1 |  |  |
| > 50 | > 50 | 29.1 (≈ 76.1 µM) | 37.6 | 34.8 (≈ 91 µM) | O=C(COc1cc(=O)oc2ccccc12)N1CCN(c2ccc(F)cc2)CC1 |  |  |
| > 50 | > 50 | 26 (≈ 57.8 µM) | 12.5 | 18.2 (≈ 40.4 µM) | O=c1cc(OCC(O)CN2CCN(c3cccc(Cl)c3Cl)CC2)c2ccccc2o1 (stereo not drawn) |  |  |
| > 50 | > 50 | > 50 | 35.5 | 15.8 (≈ 39.5 µM) | O=C(COc1cc(=O)oc2ccccc12)N1CCN(c2ccc(Cl)cc2)CC1 |  |  |
| > 50 | > 50 | 46.4 (≈ 118 µM) | 42.5 | 34.4 (≈ 87.7 µM) | Cc1ccc(N2CCN(C(=O)COc3cc(=O)oc4ccccc34)CC2)c(C)c1 |  |  |
| > 50 | > 50 | 8.19 (≈ 20.8 µM) | 7.15 | 11 (≈ 27.8 µM) | COc1ccccc1N1CCN(C(=O)COc2cc(=O)oc3ccccc23)CC1 | 164 | > 10 |
| > 50 | > 50 | 0.837 (≈ 2.12 µM) | 4.62 | 6.96 (≈ 17.6 µM) | COc1cccc(N2CCN(C(=O)COc3cc(=O)oc4ccccc34)CC2)c1 | 141 | > 10 |
| > 50 | > 50 | 0.327 (≈ 0.829 µM) | 0.83 | 0.861 (≈ 2.18 µM) | COc1ccc(N2CCN(C(=O)COc3cc(=O)oc4ccccc34)CC2)cc1 | 192 | > 10 |
| > 50 | > 50 | 23.2 (≈ 53.6 µM) | 8.41 | 4.51 (≈ 10.4 µM) | O=C(COc1cc(=O)oc2ccccc12)N1CCN(c2cccc(Cl)c2Cl)CC1 | 223 | > 10 |
| > 50 | > 50 | 28.5 (≈ 71.4 µM) | 21.9 | 7.18 (≈ 18 µM) | O=C(COc1cc(=O)oc2ccccc12)N1CCN(c2ccccc2Cl)CC1 |  |  |
| 46 (≈ 115 µM) | > 50 | > 50 | 26.6 | 2.94 (≈ 7.37 µM) | O=C(COc1cc(=O)oc2ccccc12)N1CCN(c2cccc(Cl)c2)CC1 |  |  |
| > 50 | > 50 | 1.08 (≈ 2.5 µM) | 1.82 | 0.916 (≈ 2.12 µM) | O=C(COc1cc(=O)oc2ccccc12)N1CCN(c2cccc(C(F)(F)F)c2)CC1 | 188 | > 10 |
